pKi: −log10 of the molar value. Where a name gives a salt, the structure may show the parent alone.
How the values were obtained:
[1] = molecular target: T1, human vasopressin V1b receptor (Homo sapiens, UniProt P47901); experiment: Vasopressin V1b receptor binding assay; settings: read-out: Ki(h-V1b)*
T1 construct: expressed in transfected cells; host or cells: CHO-K1 (cell line hV1b_3H2_CHO)
T1 sequence (P47901 1-424): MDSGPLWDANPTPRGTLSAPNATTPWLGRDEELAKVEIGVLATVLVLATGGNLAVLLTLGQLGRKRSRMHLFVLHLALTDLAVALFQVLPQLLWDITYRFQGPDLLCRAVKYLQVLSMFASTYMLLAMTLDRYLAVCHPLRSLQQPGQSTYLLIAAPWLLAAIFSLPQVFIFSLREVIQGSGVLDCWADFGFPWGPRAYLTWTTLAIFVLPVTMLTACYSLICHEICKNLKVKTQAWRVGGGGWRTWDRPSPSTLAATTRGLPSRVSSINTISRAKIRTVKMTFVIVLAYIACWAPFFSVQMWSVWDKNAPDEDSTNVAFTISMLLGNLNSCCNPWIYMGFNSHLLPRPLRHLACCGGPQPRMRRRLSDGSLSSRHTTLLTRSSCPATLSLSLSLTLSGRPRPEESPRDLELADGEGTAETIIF
Description: 1. Vasopressin V1b Receptor Binding Assay:
The substance concentration was further diluted 1:5 in the assay mixture (2% DMSO in the mixture).
All determinations were carried out as triplicate determinations.

[2] = molecular target: T2, recombinant human oxytocin receptors (Homo sapiens, UniProt P30559); experiment: Oxytocin receptor binding assay; settings: selectivity quotient, human OT versus human V1b
T2 construct: expressed in transfected cells; host or cells: HEK-293 (transient)
T2 sequence (P30559 1-389): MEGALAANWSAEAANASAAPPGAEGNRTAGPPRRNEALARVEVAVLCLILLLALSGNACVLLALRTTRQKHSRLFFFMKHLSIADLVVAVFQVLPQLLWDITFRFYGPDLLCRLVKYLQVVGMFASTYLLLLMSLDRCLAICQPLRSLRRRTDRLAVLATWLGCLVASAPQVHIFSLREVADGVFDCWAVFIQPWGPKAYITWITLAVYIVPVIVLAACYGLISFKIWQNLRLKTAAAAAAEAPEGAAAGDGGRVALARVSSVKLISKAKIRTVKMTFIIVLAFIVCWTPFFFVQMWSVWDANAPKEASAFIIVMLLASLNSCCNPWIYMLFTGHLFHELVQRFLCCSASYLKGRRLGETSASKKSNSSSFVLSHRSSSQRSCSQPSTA
Description: 4. Oxytocin Receptor Binding Assay
Confluent HEK-293 cells with transiently expressing recombinant human oxytocin receptors were centrifuged at 750×g at room temperature for 5 minutes. The residue was taken up in ice-cold lysis buffer (50 mM Tris-HCl, 10% glycerol, pH 7.4 and Roche complete protease inhibitor) and subjected to an osmotic shock at 4° C. for 20 minutes. The lyzed cells were then centrifuged at 750×g at 4° C. for 20 minutes, the residue was taken up in incubation buffer, and aliquots of 10^7 cells/ml were prepared. The aliquots were frozen at −80° C. until used.
On the day of the experiment, the cells were thawed, diluted with incubation buffer and homogenized using a Multipette Combitip (Eppendorf, Hamburg). […] The nonspecific binding was determined with 10^−6 M oxytocin (Bachem AG, H2510). Triplicate determinations were set up. Bound and free radioligand were separated by filtration under vacuum with Whatman GF/B glass fiber filters with the aid of a Skatron cell harvester 7000. The bound radioactivity was determined by liquid scintillation measurement in a Tricarb Beta counter, model 2000 or 2200CA (Packard).

[3] = Determination of the microsomal half-life / microsomal clearance (human liver microsomes); type: in vitro ADME; settings: pH 7.4, 0.5 μM test substance
Description: 5. Determination of the Microsomal Half-Life:
The metabolic stability of the compounds of the invention was determined in the following assay.
The test substances were incubated in a concentration of 0.5 μM as follows:
0.5 μM test substance are preincubated together with liver microsomes from different species (from rat, human or other species) (0.25 mg of microsomal protein/ml) in 0.05 M potassium phosphate buffer of pH 7.4 in microtiter plates at 37° C. for 5 min. The reaction is started by adding NADPH (1 mg/mL). After 0, 5, 10, 15, 20 and 30 min, 50 μl aliquots are removed, and the reaction is immediately stopped and cooled with the same volume of acetonitrile. The samples are frozen until analyzed. The remaining concentration of undegraded test substance is determined by MSMS. The half-life (T½) is determined from the gradient of the signal of test substance/unit time plot, it being possible to calculate the half-life of the test substance, assuming first order kinetics, from the decrease in the concentration of the compound with time. The microsomal clearance (mCl) is calculated from mCl=In2/T½/(content of microsomal protein in mg/ml)×1000 […] (modified from references: Di, The Society for Biomoleculur Screening, 2003, 453-462; Obach, DMD, 1999 vol. 27. N 11, 1350-1359).

[4] = molecular target: human vasopressin V1a receptor (Homo sapiens, UniProt P37288); experiment: Vasopressin V1a receptor binding assay; settings: selectivity quotient, human V1a versus human V1b
human vasopressin V1a receptor, sequence (P37288 whole entry): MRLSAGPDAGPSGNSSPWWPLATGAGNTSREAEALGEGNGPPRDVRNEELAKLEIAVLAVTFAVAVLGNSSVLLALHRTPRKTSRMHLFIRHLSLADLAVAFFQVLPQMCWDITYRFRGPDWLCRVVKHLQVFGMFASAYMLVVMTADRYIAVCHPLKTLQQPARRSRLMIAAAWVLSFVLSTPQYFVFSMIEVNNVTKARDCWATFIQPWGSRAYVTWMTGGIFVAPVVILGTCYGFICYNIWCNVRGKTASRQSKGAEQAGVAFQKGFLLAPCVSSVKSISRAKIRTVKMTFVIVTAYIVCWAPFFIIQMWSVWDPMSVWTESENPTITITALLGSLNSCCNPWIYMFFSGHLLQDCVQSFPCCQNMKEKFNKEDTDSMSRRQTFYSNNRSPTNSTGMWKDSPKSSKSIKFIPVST

Row | pKi [1] | Ki(h-OT)/Ki(h-V1b)* [2] | microsomal CLint at 0.5 μM [3] | Ki(h-V1a)/Ki(h-V1b)* [4] | SMILES
1 | > 8.00 | +++ (>45) | 75 to 200 µL/min/mg | +++ (>75) | CCOc1ncccc1C1(OC(=O)N2CCN(C3CCN(C)CC3)CC2)C(=O)N(S(=O)(=O)c2ccccc2OC)c2ccc(C#N)cc21 (racemic) [Example 2, (±)-5-Cyano-3-(2-ethoxypyridin-3-yl)-1-[(2-methoxyphenyl)sulfonyl]-2-oxo-2,3-dihydro-1H-indol-3-yl-4-(1-methylpiperidin-4-yl)piperazine-1-carboxylate]
2 | 7.30 to 8.00 | +++ (>45) | < 50 µL/min/mg | ++ (>25-75) | CCOc1ncccc1C1(OC(=O)N2CCN(C3CCNCC3)CC2)C(=O)N(S(=O)(=O)c2ccccc2)c2ccc(C#N)cc21 (racemic) [Example 28, (±)-5-Cyano-3-(2-ethoxypyridin-3-yl)-2-oxo-1-(phenylsulfonyl)-2,3-dihydro-1H-indol-3-yl 4-piperidin-4-ylpiperazine-1-carboxylate as bis(trifluoroacetic acid) salt]
